Laboratory results reported in ChEMBL document CHEMBL1124722, “Synthesis and anticonvulsant activity of 2-benzylglutarimides” (J Med Chem, 1990).
Calls of active or inactive are those of the source. The rule behind the calls is not given here.

Assays:
Mus musculus [1] = experiment: The Neurologic toxicity by measuring rotarod test after 0.5 h; Not active up to 300 mg/kg; type: organism-based; set-up: dose 300 mg/kg; settings: in vivo
Mus musculus [2] = experiment: The Neurologic toxicity by measuring rotarod test after 4 hr; Not active up to 300 mg/kg; type: organism-based; set-up: dose 300 mg/kg; settings: in vivo
Mus musculus [3] = experiment: The effective dose of compound was tested against maximal electroshock induced seizures after intraperitoneal administration; type: functional; settings: ip
[4] = The cytotoxicity after intraperitoneal administration; type: organism-based; settings: mouse, in vivo, ip
Mus musculus [5] = experiment: Anticonvulsant activity against maximal electroshock induced seizures after 4 hr; Not active up to 300 mg/kg.; type: functional, organism-based; set-up: dose 300 mg/kg
[6] = Protective index was calculated (TD50/ED50) in MES assay in mice after intraperitoneal administration; type: functional
Mus musculus [7] = experiment: Anticonvulsant activity against subcutaneous administered Metrazol induced seizures (scMET) after 4 hr at 100 mg/kg; Active; type: functional, organism-based; set-up: dose 100 mg/kg
Mus musculus [8] = organism: Mus musculus; experiment: Time of peak effect was determined for activity in MES; type: functional; set-up: unit not given here
Mus musculus [9] = organism: Mus musculus; experiment: Time of peak effect was determined for toxicity; type: organism-based; set-up: unit not given here; settings: in vivo
Mus musculus [10] = experiment: Anticonvulsant activity against subcutaneous administered Metrazol induced seizures (scMET) after 0.5 hr at 300 mg/kg; Active; type: functional, organism-based; set-up: dose 300 mg/kg
[11] = Protective index was calculated (TD50/ED50) in scMET assay in mice after intraperitoneal administration; type: functional
Mus musculus [12] = experiment: Anticonvulsant activity against maximal electroshock induced seizures (MES) after 0.5 hr at 100 mg/kg; Active; type: functional, organism-based; set-up: dose 100 mg/kg
Mus musculus [13] = experiment: The effective dose of compound was tested against subcutaneous administered Metrazol induced seizures after intraperitoneal administration; type: functional
Rattus norvegicus [14] = experiment: The effective dose of compound was tested against maximal electroshock induced seizures after oral administration in rat.; type: functional
Mus musculus [15] = experiment: The compound was tested for anticonvulsant activity against (subcutaneous administered) Metrazol induced seizures after intraperitoneal administration; type: functional
Mus musculus [16] = experiment: The effective dose of compound was tested against maximal electroshock induced seizures after oral administration in mice.; type: functional
Rattus norvegicus [17] = experiment: The effective dose of compound was tested against subcutaneous administered Metrazol induced seizures in rat.; type: functional; settings: sc
Mus musculus [18] = experiment: The effective dose of compound was tested against subcutaneous administered Metrazol induced seizures in mice; type: functional; settings: sc
Mus musculus [19] = experiment: The effective dose of compound was tested against subcutaneous administered Metrazol induced seizures after intraperitoneal administration.; type: functional
Mus musculus [20] = experiment: The effective dose of compound was tested against maximal electroshock induced seizures after intraperitoneal administration.; type: functional; settings: ip
[21] = Median lethal dose was measured after 24 hr.; type: organism-based; settings: mouse, in vivo
Mus musculus [22] = organism: Mus musculus; experiment: Median hypnotic dose by loss of righting reflex.; type: functional
Mus musculus [23] = organism: Mus musculus; experiment: (§1) Time of peak effect activity against maximal electroshock induced seizures; type: ADME, organism-based; settings: in vivo
Mus musculus [24] = organism: Mus musculus; experiment: Time of peak effect toxicity against maximal electroshock induced seizures; type: organism-based; settings: in vivo
Mus musculus [25] = experiment: The effective dose of compound was tested against maximal electroshock induced seizures after oral administration in mice; type: functional
Mus musculus [26] = organism: Mus musculus; experiment: Median hypnotic dose by loss of righting reflex; type: functional
Mus musculus [27] = experiment: The compound was tested for anticonvulsant activity against (subcutaneous administered) strychnine induced seizures after intraperitoneal administration; type: functional
Mus musculus [28] = experiment: Anticonvulsant activity against subcutaneous administered Metrazol induced seizures (scMET) after 0.5 hr at 30 mg/kg; Active; type: functional, organism-based; set-up: dose 30 mg/kg
Mus musculus [29] = experiment: Anticonvulsant activity against subcutaneous picrotoxin induced seizures after intraperitoneal administration; type: functional
Mus musculus [30] = experiment: The Neurologic toxicity by measuring rotarod test after 4 hr; No toxicity up to 300 mg/kg; type: organism-based; set-up: dose 300 mg/kg; settings: in vivo
Mus musculus [31] = experiment: Anticonvulsant activity against maximal electroshock induced seizures (MES) after 0.5 hr at 300 mg/kg; Active; type: functional, organism-based; set-up: dose 300 mg/kg
Mus musculus [32] = organism: Mus musculus; experiment: Median lethal dose was measured after 24 hr; type: functional
Mus musculus [33] = experiment: The compound was tested for anticonvulsant activity against (subcutaneous administered) bicuculline induced seizures after intraperitoneal administration; type: functional
[34] = The cytotoxicity (given orally) […] in rat; type: organism-based; settings: in vivo
Rattus norvegicus [35] = experiment: The effective dose of compound was tested against maximal electroshock induced seizures after oral administration in rat; type: functional
Mus musculus [36] = experiment: The Neurologic toxicity by measuring rotarod test after 0.5 h; No toxicity up to 300 mg/kg; type: organism-based; set-up: dose 300 mg/kg; settings: in vivo
Mus musculus [37] = experiment: The effective dose of compound (given orally) was tested against subcutaneous administered Metrazol induced seizures in mice; type: functional
[38] = Protective index was calculated (TD50/ED50) in MES assay in rat after oral administration; type: functional
[39] = The cytotoxicity (given orally) […] in mice; type: organism-based; settings: mouse, in vivo
Mus musculus [40] = experiment: Anticonvulsant activity against maximal electroshock induced seizures (MES) after 4 hr at 300 mg/kg; Active; type: functional, organism-based; set-up: dose 300 mg/kg
Mus musculus [41] = organism: Mus musculus; experiment: as §1; type: functional
[42] = Protective index was calculated (TD50/ED50) in MES assay in mice after oral administration; type: functional
Mus musculus [43] = experiment: Anticonvulsant activity against subcutaneous administered Metrazol induced seizures (scMET) after 4 hr at 300 mg/kg; Active; type: functional, organism-based; set-up: dose 300 mg/kg
Rattus norvegicus [44] = experiment: The effective dose of compound (given orally) was tested against subcutaneous administered Metrazol induced seizures in rat; type: functional
[45] = Ratio of LD50/HD50 was determined; type: functional
[46] = Protective index was calculated (TD50/ED50) in scMET assay in rat after oral administration; type: functional
[47] = Protective index was calculated (TD50/ED50) in scMET assay in mice after oral administration; type: functional
[48] = Protective index was calculated (TD50/ED50) in MES assay in mice after intraperitoneal administration; […]; type: functional, organism-based
Mus musculus [49] = experiment: The Neurologic toxicity by measuring rotarod test after 0.5 hr at 300 mg/kg; Active; type: organism-based; set-up: dose 300 mg/kg; settings: in vivo
Mus musculus [50] = experiment: The Neurologic toxicity by measuring rotarod test after 4 hr at 300 mg/kg; Active; type: organism-based; set-up: dose 300 mg/kg; settings: in vivo
Mus musculus [51] = experiment: Anticonvulsant activity against maximal electroshock induced seizures (MES) after 0.5 h; Not active up to 300 mg/kg; type: functional, organism-based; set-up: dose 300 mg/kg
[52] = The cytotoxicity after intraperitoneal administration in rat.; type: organism-based; settings: in vivo, ip
Rattus norvegicus [53] = experiment: The effective dose of compound was tested against subcutaneous administered Metrazol induced seizures in rat; NE=Not effective; type: functional, organism-based
Mus musculus [54] = experiment: The effective dose of compound was tested against subcutaneous administered Metrazol induced seizures after intraperitoneal administration;NE=Not effective; type: functional, organism-based
[55] = Protective index was calculated (TD50/ED50) in scMet assay in mice after intraperitoneal administration; type: functional
Mus musculus [56] = experiment: The effective dose of compound was tested against maximal electroshock induced seizures after intraperitoneal administration; Not active up to 300 mg/kg; type: functional, organism-based; set-up: dose 300 mg/kg

Compound: CN1C(=O)CCC(Cc2ccccc2Br)C1=O (stereo unspecified)
- Toxicity (Mus musculus [1]): Not Active
- Toxicity (Mus musculus [2]): Not Active
- ED50 (Mus musculus [3]): 474 mg/kg
- TD50 [4]: 617 mg/kg
- Activity (Mus musculus [5]): inactive
- Ratio [6]: 1.3
- Activity (Mus musculus [7]): Active
- TPE (Mus musculus [8]): 1
- TPE (Mus musculus [9]): 0.5
- Activity (Mus musculus [10]): Active
- Ratio [11]: 2.41
- Activity (Mus musculus [12]): Active
- ED50 (Mus musculus [13]): 256 mg/kg

Compound: CCC1(C)CC(=O)NC1=O (stereo unspecified) [ETHOSUXIMIDE]
- ED50 (Rattus norvegicus [14]): > 1200 mg/kg
- ED50 (Mus musculus [15]): 130 mg/kg
- ED50 (Mus musculus [16]): > 2000 mg/kg
- ED50 (Rattus norvegicus [17]): 54 mg/kg
- ED50 (Mus musculus [18]): 192 mg/kg
- ED50 (Mus musculus [19]): 130 mg/kg
- ED50 (Mus musculus [20]): > 1000 mg/kg
- LD50 at 24 h [21]: 1750 mg/kg
- HD50 (Mus musculus [22]): 850.61 mg/kg
- Activity (Mus musculus [23]): 0.5
- Time of peak effect (Mus musculus [24]): 0.5

Compound: O=C1CCC(Cc2ccc(Cl)cc2)C(=O)N1 (stereo unspecified)
- ED50 (Mus musculus [25]): 579 mg/kg
- HD50 (Mus musculus [26]): 1282.47 mg/kg
- ED50 (Mus musculus [27]): 232 mg/kg
- Activity (Mus musculus [28]): Active
- ED50 (Mus musculus [29]): 158 mg/kg
- Toxicity (Mus musculus [30]): No toxicity up to 300 mg/kg
- ED50 (Mus musculus [15]): 72.8 mg/kg
- ED50 (Mus musculus [3]): 137 mg/kg
- TD50 [4]: 1220 mg/kg
- Activity (Mus musculus [31]): Active
- Ratio [6]: 8.95
- LD50 (Mus musculus [32]): > 2400 mg/kg
- ED50 (Mus musculus [33]): 249 mg/kg
- ED50 (Mus musculus [19]): 72.8 mg/kg
- TD50 [34]: 68.2 mg/kg
- ED50 (Rattus norvegicus [35]): 58.3 mg/kg
- Toxicity (Mus musculus [36]): No toxicity up to 300 mg/kg
- ED50 (Mus musculus [37]): 274 mg/kg
- Ratio [38]: 1.17
- Ratio [11]: 16.82
- TD50 [39]: > 3000 mg/kg
- Activity (Mus musculus [40]): Active
- TPE (Mus musculus [41]): 0.5
- Ratio [42]: >5.18
- Activity (Mus musculus [43]): Active
- ED50 (Rattus norvegicus [44]): 36.4 mg/kg
- Ratio [45]: > 1.87
- Ratio [46]: 1.87
- TPE (Mus musculus [24]): 1
- Ratio [47]: >10.95

Compound: O=C1CCC(Cc2ccc(Cl)cc2Cl)C(=O)N1 (stereo unspecified)
- Ratio [48]: inactive
- Toxicity (Mus musculus [49]): Active
- Toxicity (Mus musculus [50]): Active
- TD50 [4]: 687 mg/kg
- Activity (Mus musculus [5]): inactive
- Activity (Mus musculus [7]): Active
- ED50 (Mus musculus [19]): 160 mg/kg
- TPE (Mus musculus [8]): 1
- TPE (Mus musculus [9]): 0.5
- Activity (Mus musculus [51]): inactive
- Activity (Mus musculus [10]): Active
- Ratio [11]: 4.29

Compound: O=C1NC(=O)C(c2ccccc2)(c2ccccc2)N1 [PHENYTOIN]
- TD50 [52]: > 3000 mg/kg
- ED50 (Rattus norvegicus [53]): inactive
- ED50 (Mus musculus [54]): inactive
- TPE (Mus musculus [8]): 2
- TPE (Mus musculus [9]): 2
- LD50 at 24 h [21]: 230 mg/kg
- HD50 (Mus musculus [22]): 178.34 mg/kg
- Activity (Mus musculus [41]): 2 h
- Time of peak effect (Mus musculus [24]): 2 h

Compound: O=C1CCC(Cc2ccc(I)cc2)C(=O)N1 (stereo unspecified)
- Ratio [55]: >12.04
- Toxicity (Mus musculus [30]): No toxicity up to 300 mg/kg
- TD50 [4]: > 1050 mg/kg
- Activity (Mus musculus [5]): inactive
- TPE (Mus musculus [8]): 1
- ED50 (Mus musculus [56]): Not active up to 300 mg/kg
- Toxicity (Mus musculus [36]): No toxicity up to 300 mg/kg
- Activity (Mus musculus [51]): inactive
- Activity (Mus musculus [10]): Active
- Activity (Mus musculus [43]): Active
- ED50 (Mus musculus [13]): 87.2 mg/kg
